Experiments:
[1] = in vivo
relapsed myeloma = assay: Clinical response by International Myeloma Working Group criteria; type: in vivo, human; conditions: 15 patients, all dose levels
[2] = in human serum; cited from earlier work
[3] = Plasma pharmacokinetics, LC-MS/MS, non-compartmental analysis; type: in vivo, human; conditions: for AUC(0-inf) / clearance / Cmax / half-life / Tmax / Vd: human, plasma, intravenous; for AUC(0-inf): Mean AUC0-∞ ± SD; for clearance: Mean CL ± SD; for Cmax: Mean Cmax ± SD; for half-life: Mean T1/2 ± SD; for Vd: Mean Vz ± SD
[4] = dose level 30 + 30 mg/m^2, cycle 1 days 1 and 22 combined
[5] = dose level 30+50 mg/m^2, cycle 1 days 1 and 22 combined
[6] = dose level 50+50 mg/m^2, cycle 1 days 1 and 22 combined

AUC(0-inf) [3, 4]: 7.78 ± 2.75 µM·h
AUC(0-inf) [3, 5]: 4.75 ± 1.06 µM·h
AUC(0-inf) [3, 6]: 14.2 ± 5.34 µM·h
clearance [3, 4]: 666 mL/min
clearance [3, 5]: 1280 mL/min
clearance [3, 6]: 643 mL/min
Cmax [3, 4]: 1850 ± 800 nM
Cmax [3, 5]: 1090 ± 430 nM
Cmax [3, 6]: 2410 ± 740 nM
half-life [3, 4]: 6.87 ± 3.24 h
half-life [3, 5]: 3.65 ± 1.75 h
half-life [3, 6]: 5.35 ± 2.83 h
Tmax ([3]; Mean Tmax ± SD, dose level 30 + 30 mg/m^2, cycle 1 days 1 and 22 combined): 0.52 ± 0.03 h
Tmax ([3]; Mean Tmax ± SD, dose level 30+50 mg/m^2, cycle 1 days 1 and 22 combined): 1.18 ± 1.22 h
Tmax ([3]; Mean Tmax ± SD, dose level 50+50 mg/m^2, cycle 1 days 1 and 22 combined): 1.4 ± 1.67 h
Vd [3, 4]: 368 ± 210 L
Vd [3, 5]: 417 ± 242 L
Vd [3, 6]: 317 ± 255 L
Tmax ([3]; Tmax, outlier, 30/50 mg/m^2 dose level group, single profile): 3 h
Average difference in AUC(0-∞), day 22 versus day 1 ([3]; patients with PK data on both days (n=6), 95% CI −2.78 to 4.78, P=0.53): 1.00 µM·h
SMILES: CN1CC[C@H](c2c(O)cc(O)c3c(=O)cc(-c4ccccc4Cl)oc23)[C@H](O)C1 [Flavopiridol]
Dehydration, patients with toxicity ([1]; human): 2 n
Diaphoresis, patients with toxicity ([1]; human): 1 n
Dizziness, patients with toxicity ([1]; human): 1 n
Hyperglycemia, patients with toxicity ([1]; human): 4 n
Hyperkalemia, patients with toxicity ([1]; human): 2 n
Hypocalcemia, patients with toxicity ([1]; human): 3 n
Lymphopenia, patients with toxicity ([1]; human): 5 n
Nausea, patients with toxicity ([1]; human): 3 n
Vomiting, patients with toxicity ([1]; human): 1 n
Serious adverse events, number [1]: eight
Confirmed partial responses (relapsed myeloma): no confirmed partial responses
Patients with progressive disease after the first cycle (relapsed myeloma): 4 patients
Protein binding [2]: highly protein bound

From PMC3946636 (Cancer chemotherapy and pharmacology, 2013)
